# Like-named read-outs stand apart in the source and are kept apart here.
# Assay: Test on the solubility of glibenclamide in additive/cyclodextrin solutions
# Type: physicochemical
# Conditions: 25 °C, thermodynamic from solid
# Description: An excess amount of glibenclamide powder was added into an aqueous solution comprising different proportion of additive (e.g., meglumine, sodium carbonate, sodium hydrogen carbonate or sodium hydroxide) and cyclodextrin (hydroxypropyl-β-cyclodextrin) to form a suspension. The suspension was placed in a constant shaking incubator, and shaken for 1 h at 25±1° C. The shaken suspension was filtered with a 0.45 μm hydrophilic filter membrane, with the primary filtrate being disposed and the subsequent filtrate being collected. The subsequent filtrate was diluted to appropriate times with a PBS buffer having a pH of 7.4, the absorbance of the diluted subsequent filtrate was determined at a wavelength of 225 nm, and the solubility of glibenclamide in the diluted subsequent filtrate was calculated according to the absorbance. Corresponding solubility curves were plotted with the solubility of glibenclamide as the vertical axis and the concentration of cyclodextrin and/or meglumine as the horizontal axis.
smiles,measurement,setting,value
"COc1ccc(Cl)cc1C(=O)NCCc1ccc(S(=O)(=O)NC(=O)NC2CCCCC2)cc1 [glibenclamide, 5-chloro-N-(4-[N-(cyclohexylcarbamoyl)aminosulfonyl]phenethyl)-2-methoxybenzamide]",solubility at 1 h,"aqueous buffer, meglumine 0.1% (w/v), cyclodextrin 0% (w/v), read-out: Solubility",960 µg/mL
same,solubility at 1 h,"aqueous buffer, meglumine 0.5% (w/v), cyclodextrin 0% (w/v), read-out: Solubility",1760 µg/mL
same,solubility at 1 h,"aqueous buffer, meglumine 1% (w/v), cyclodextrin 0% (w/v), read-out: Solubility",4930 µg/mL
same,solubility at 1 h,"aqueous buffer, meglumine 2.5% (w/v), cyclodextrin 0% (w/v), read-out: Solubility",8030 µg/mL
same,solubility at 1 h,"aqueous with cosolvent or surfactant or cyclodextrin, cyclodextrin only, from 0.5% (w/v) to 40% (w/v), read-out: water solubility of glibenclamide",1.3 to 120 µg/mL
same,solubility at 1 h,"aqueous with cosolvent or surfactant or cyclodextrin, meglumine 0% (w/v), 2-hydroxypropyl-β-cyclodextrin 0.5% (w/v), read-out: Solubility",1.3 µg/mL
same,solubility at 1 h,"aqueous with cosolvent or surfactant or cyclodextrin, meglumine 0% (w/v), 2-hydroxypropyl-β-cyclodextrin 1.25% (w/v), read-out: Solubility",3.1 µg/mL
same,solubility at 1 h,"aqueous with cosolvent or surfactant or cyclodextrin, meglumine 0% (w/v), 2-hydroxypropyl-β-cyclodextrin 2.5% (w/v), read-out: Solubility",5.8 µg/mL
same,solubility at 1 h,"aqueous with cosolvent or surfactant or cyclodextrin, meglumine 0% (w/v), 2-hydroxypropyl-β-cyclodextrin 5% (w/v), read-out: Solubility",14 µg/mL
same,solubility at 1 h,"aqueous with cosolvent or surfactant or cyclodextrin, meglumine 0% (w/v), 2-hydroxypropyl-β-cyclodextrin 10% (w/v), read-out: Solubility",32 µg/mL
same,solubility at 1 h,"aqueous with cosolvent or surfactant or cyclodextrin, meglumine 0.1% (w/v), 2-hydroxypropyl-β-cyclodextrin 0.5% (w/v), read-out: Solubility",1250 µg/mL
same,solubility at 1 h,"aqueous with cosolvent or surfactant or cyclodextrin, meglumine 0.1% (w/v), 2-hydroxypropyl-β-cyclodextrin 1.25% (w/v), read-out: Solubility",1420 µg/mL
same,solubility at 1 h,"aqueous with cosolvent or surfactant or cyclodextrin, meglumine 0.1% (w/v), 2-hydroxypropyl-β-cyclodextrin 2.5% (w/v), read-out: Solubility",1660 µg/mL
same,solubility at 1 h,"aqueous with cosolvent or surfactant or cyclodextrin, meglumine 0.1% (w/v), 2-hydroxypropyl-β-cyclodextrin 5% (w/v), read-out: Solubility",2170 µg/mL
same,solubility at 1 h,"aqueous with cosolvent or surfactant or cyclodextrin, meglumine 0.1% (w/v), 2-hydroxypropyl-β-cyclodextrin 10% (w/v), read-out: Solubility",2170 µg/mL
same,solubility at 1 h,"aqueous with cosolvent or surfactant or cyclodextrin, meglumine 0.1% (w/v), 2-hydroxypropyl-β-cyclodextrin 20% (w/v), read-out: Solubility",2230 µg/mL
same,solubility at 1 h,"aqueous with cosolvent or surfactant or cyclodextrin, meglumine 0.1% (w/v), 2-hydroxypropyl-β-cyclodextrin 30% (w/v), read-out: Solubility",2210 µg/mL
same,solubility at 1 h,"aqueous with cosolvent or surfactant or cyclodextrin, meglumine 0.1% (w/v), 2-hydroxypropyl-β-cyclodextrin 40% (w/v), read-out: Solubility",2280 µg/mL
same,solubility at 1 h,"aqueous with cosolvent or surfactant or cyclodextrin, meglumine 0.1% (w/v), cyclodextrin from 0.5% (w/v) to 5% (w/v), read-out: water solubility of glibenclamide",1250 to 2170 µg/mL
same,solubility at 1 h,"aqueous with cosolvent or surfactant or cyclodextrin, meglumine 0.1% (w/v), cyclodextrin from 5% (w/v) to 40% (w/v), read-out: solubility of glibenclamide",~2170 µg/mL
same,solubility at 1 h,"aqueous with cosolvent or surfactant or cyclodextrin, meglumine 5% (w/v), 2-hydroxypropyl-β-cyclodextrin 5% (w/v), read-out: Solubility",25200 µg/mL
same,solubility at 1 h,"aqueous with cosolvent or surfactant or cyclodextrin, meglumine 5% (w/v), 2-hydroxypropyl-β-cyclodextrin 10% (w/v), read-out: Solubility",34400 µg/mL
same,solubility at 1 h,"aqueous with cosolvent or surfactant or cyclodextrin, meglumine 5% (w/v), 2-hydroxypropyl-β-cyclodextrin 20% (w/v), read-out: Solubility",42200 µg/mL
same,solubility at 1 h,"aqueous with cosolvent or surfactant or cyclodextrin, meglumine 5% (w/v), 2-hydroxypropyl-β-cyclodextrin 30% (w/v), read-out: Solubility",49400 µg/mL
same,solubility at 1 h,"aqueous with cosolvent or surfactant or cyclodextrin, meglumine 5% (w/v), 2-hydroxypropyl-β-cyclodextrin 40% (w/v), read-out: Solubility",51000 µg/mL
same,solubility at 1 h,"aqueous with cosolvent or surfactant or cyclodextrin, meglumine 5% (w/v), cyclodextrin 0% (w/v), read-out: Solubility",13000 µg/mL
same,solubility at 1 h,"aqueous with cosolvent or surfactant or cyclodextrin, meglumine 5% (w/v), cyclodextrin from 5% (w/v) to 30% (w/v), read-out: water solubility of glibenclamide",25200 to 49400 µg/mL
same,solubility at 1 h,"aqueous with cosolvent or surfactant or cyclodextrin, meglumine 5% (w/v), cyclodextrin from 30% (w/v) to 40% (w/v), read-out: solubility of glibenclamide",~49400 µg/mL
same,solubility at 1 h,"aqueous with cosolvent or surfactant or cyclodextrin, meglumine 10% (w/v), cyclodextrin 0% (w/v), read-out: Solubility",19000 µg/mL
same,solubility at 1 h,"aqueous with cosolvent or surfactant or cyclodextrin, meglumine only, from 0.1% (w/v) to 10% (w/v), read-out: water solubility of glibenclamide",960 to 19000 µg/mL
